Source: patent US20170014524A1, “AURISTATIN-ANTIBODY CONJUGATES AND USES THEREOF” (The California Institute for Biomedical Research, priority 2015, published 2017)
Where a SMILES comes first, the peptide text is derived from it. [ ]: non-standard residue; d: D form. The star is where a group is joined. Dolaproine = CO[C@@H]([C@@H]1CCCN1)[C@@H](C)C(=O)O; Dil = CC[C@H](C)[C@H](NC)[C@@H](CC(=O)O)OC; Doe = c1ccc(C[C@H](N*)c2nccs2)cc1; NMeV = CN[C@H](C(=O)O)C(C)C

Legend:
Assay type in all cases: cell-based
Settings in all cases: 600 nM to 30 pM, 4 days at 37° C.
[1] = tested on: Ramos (CXCR4+) cells; assay: Cytotoxicity (CellTiter-Glo cell viability, 4 days) in Ramos cells
Procedure: (§1) Cell viabilities were measured by addition of CellTiter-Glo (Promega) and the luminescent signals were read by EnVision plate reader.
(§2) The following illustrative examples are representative of embodiments of the compositions and methods described herein and are not meant to be limiting in any way. All cell lines were purchased from ATCC unless otherwise stated. Ramos, Jurkat, OPM-2 cells were cultured in RPMI with 10% FBS and 100 U/mL Penicillin Streptomycin. MDA-MB-231 cells were cultured in DMEM (high glucose) with 10% FBS, 1 mM sodium pyruvate, and 100 U/mL Penicillin Streptomycin. SKBR-3 cells were cultured in DMEM with 10% FBS and 1x Antibiotic-Antimycotic (100 U/mL Penicillin Streptomycin, 0.25 μg/mL Fungizone). […]
(§3) Ramos (CXCR4+), Jurkat (CXCR4+), and MDA-MB-231 (CXCR4−) cells were treated with either small molecule drugs, anti-CXCR4 (SEQ ID NOS: 3, 4), or anti-CXCR4-auristatin conjugates with concentrations ranging from 600 nM to 30 pM for 4 days at 37° C. Cell viabilities were measured by addition of CellTiter-Glo (Promega) and the luminescent signals were read by EnVision plate reader.
(§4) Briefly, 1000 cells/well were seeded in a 384-well plate (45 uL/well with their corresponding media) and incubated at 37° C. overnight. […] Plates were shaken and incubated for at least 10 min before the generated luminescent signals were read using PerkinElmer EnVision Multilabel Reader.

[2] = tested on: Jurkat (CXCR4+) cells; assay: Cytotoxicity (CellTiter-Glo cell viability, 4 days) in Jurkat cells
Procedure: as §1, §2, §3, §4

[3] = tested on: MDA-MB-231 (CXCR4−) cells; assay: Cytotoxicity (CellTiter-Glo cell viability, 4 days) in MDA-MB-231 cells
Procedure: as §1, §2, §3, §4

## CC[C@H](C)[C@@H]([C@@H](CC(=O)N1CCC[C@H]1[C@H](OC)[C@@H](C)C(=O)N[C@@H](Cc1ccccc1)c1nccs1)OC)N(C)C(=O)[C@@H](NC(=O)[C@@H](NC)C(C)C)C(C)C [MMAD, monomethyl auristatin D] (H-[NMeV]V[Dil][Dolaproine]-Doe)
[1]
  IC50: 1.4 nM
[2]
  IC50: 2.8 nM
[3]
  IC50: 5.2 nM
